We go through four molecules from publication PMC7565988, “Insight into the Anticancer Activity of Copper(II) 5-Methylenetrimethylammonium-Thiosemicarbazonates and Their Interaction with Organic Cation Transporters” (Biomolecules, 2020).

Common to all, as to assay: [3H]-MPP+ uptake inhibition assay in HEK-293 cells
Holding throughout (assay type): cell-based

The target in one data set is T1, OCT1 (Homo sapiens, UniProt O15245).
T1 construct: expressed in transfected cells
T1 sequence (O15245 1-554): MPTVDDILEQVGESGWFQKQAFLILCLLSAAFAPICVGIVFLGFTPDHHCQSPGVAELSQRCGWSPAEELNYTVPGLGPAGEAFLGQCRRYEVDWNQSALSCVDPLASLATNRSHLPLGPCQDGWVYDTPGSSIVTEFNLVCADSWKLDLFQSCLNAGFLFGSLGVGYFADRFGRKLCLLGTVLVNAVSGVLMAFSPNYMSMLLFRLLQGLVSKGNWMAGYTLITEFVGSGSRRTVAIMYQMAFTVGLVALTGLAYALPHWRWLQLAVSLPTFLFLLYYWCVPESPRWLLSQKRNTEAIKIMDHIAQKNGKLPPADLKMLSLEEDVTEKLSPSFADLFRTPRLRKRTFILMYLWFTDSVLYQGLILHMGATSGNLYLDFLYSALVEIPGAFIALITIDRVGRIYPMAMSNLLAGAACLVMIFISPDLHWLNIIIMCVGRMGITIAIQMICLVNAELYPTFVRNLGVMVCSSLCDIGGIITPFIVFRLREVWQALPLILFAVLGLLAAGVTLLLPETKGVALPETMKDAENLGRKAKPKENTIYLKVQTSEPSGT
To be noted: 10 min uptake; for IC50: HEK cells stably expressing human OCT1. The protocol: (§1) HEK–293 cells (LGC Standards GmbH, Germany) stably expressing human isoforms of wild type organic cation transporters 1–3 (OCT1–3) were cultured in Dulbecco’s modified Eagle’s medium (DMEM; Sigma-Aldrich) with high glucose (4.5 g/L) and L-glutamine (584 mg/L) supplemented with 10% foetal calf serum (FCS; Biowest) and penicillin/streptomycin mixture (50 mg/L; Sigma/Aldrich) at 37 °C in a humidified atmosphere (5% CO2). The selection reagent was Geneticin (150 U/mL; Merck, Germany) for all three cell lines. Cells were seeded onto poly-D-lysine (0.05 mg/mL; Sigma-Aldrich) precoated clear bottom Corning 96 well white assay plate (Sigma-Aldrich) at the density of 4 × 10^4 cells per well 24 h prior to the experiment.
(§2) The assay was performed as previously described with slight modification. Briefly, on the day of the experiment, cells were washed once with 100 µL Krebs-HEPES buffer (KHB; 10 mM HEPES, 120 mM NaCl, 3 mM KCl, 2 mM CaCl2·2H2O, 2 mM MgCl2·6H2O, 5 mM D-(+)- glucose, pH 7.3) at room temperature. Cells were preincubated for 10 min in 50 µL of RT KHB containing increasing concentrations of tested compounds previously dissolved in dimethyl sulfoxide (DMSO; final concentration in working solution was 1%). After that, the preincubation solution was quickly removed and replaced with 50 µL of uptake solution containing the aforementioned components with the addition of 50 nM [^3H]-1-methyl-4-phenylpyridinium ([^3H]-MPP^+; 60 Ci/mmol; American Radiolabeled Chemicals, Saint Louis, MO, USA). After the 10 min uptake at RT, the transport was stopped by washing cells with 100 µL of ice-cold KHB and adding 200 µL of Ultima GoldTM XR scintillation cocktail (PerkinElmer, MA, USA). The plates were shaken, placed into Wallac 1450 MicroBeta TriLux Liquid Scintillation Counter and Lumi (GMI, Ramsey, MN, USA) and the released radioactivity was measured for 3 min. Nonspecific [^3H]-MPP^+ uptake was measured in the presence of 100 µM decynium-22 and the data were plotted as a percentage of uptake in the presence of 1% DMSO from which the value of the nonspecific uptake was subtracted. Nonlinear regression analysis (GraphPad Prism version 5.0, GraphPad Software, San Diego, CA, USA) was used for calculation of IC50 values.

For a further data set, the target named is T2, OCT2 (Homo sapiens, UniProt O15244).
T2 construct: expressed in transfected cells
T2 sequence (O15244 1-555): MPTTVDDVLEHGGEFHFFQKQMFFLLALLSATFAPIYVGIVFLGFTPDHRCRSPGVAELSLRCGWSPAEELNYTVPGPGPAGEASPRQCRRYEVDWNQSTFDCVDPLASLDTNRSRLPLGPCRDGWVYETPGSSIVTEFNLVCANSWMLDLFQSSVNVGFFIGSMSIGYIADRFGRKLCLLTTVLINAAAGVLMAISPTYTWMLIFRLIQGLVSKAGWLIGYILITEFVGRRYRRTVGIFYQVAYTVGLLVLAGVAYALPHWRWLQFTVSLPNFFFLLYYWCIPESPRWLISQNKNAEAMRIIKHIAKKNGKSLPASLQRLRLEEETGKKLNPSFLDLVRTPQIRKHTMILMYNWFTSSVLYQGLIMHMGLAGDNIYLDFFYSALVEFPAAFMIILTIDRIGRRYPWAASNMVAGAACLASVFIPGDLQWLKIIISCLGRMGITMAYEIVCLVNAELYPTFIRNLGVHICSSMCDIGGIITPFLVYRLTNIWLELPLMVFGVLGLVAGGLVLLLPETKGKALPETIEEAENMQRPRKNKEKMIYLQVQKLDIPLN
The settings on record: for IC50: HEK cells stably expressing human OCT2, 10 min uptake; for interaction with OCT2: [3H]-MPP+ uptake inhibition in HEK OCT2 cells. The protocol: as §1, §2

For a further data set, the target named is T3, OCT3 (Homo sapiens, UniProt O75751).
T3 construct: expressed in transfected cells
T3 sequence (O75751 1-556): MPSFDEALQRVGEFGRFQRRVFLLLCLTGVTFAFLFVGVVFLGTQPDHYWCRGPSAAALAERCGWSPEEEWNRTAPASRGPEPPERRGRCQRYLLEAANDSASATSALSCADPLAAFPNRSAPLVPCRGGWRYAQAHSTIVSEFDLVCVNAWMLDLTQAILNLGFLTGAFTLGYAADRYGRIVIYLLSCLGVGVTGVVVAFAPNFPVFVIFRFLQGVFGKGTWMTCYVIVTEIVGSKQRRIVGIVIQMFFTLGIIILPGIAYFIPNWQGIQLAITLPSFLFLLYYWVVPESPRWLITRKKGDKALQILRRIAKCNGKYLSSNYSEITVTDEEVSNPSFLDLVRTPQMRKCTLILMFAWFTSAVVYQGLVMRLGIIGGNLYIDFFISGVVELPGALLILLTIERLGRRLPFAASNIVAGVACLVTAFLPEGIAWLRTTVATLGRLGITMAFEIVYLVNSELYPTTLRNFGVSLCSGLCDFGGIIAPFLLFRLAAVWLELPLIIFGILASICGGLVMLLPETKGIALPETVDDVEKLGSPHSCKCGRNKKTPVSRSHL
The settings on record: HEK cells stably expressing human OCT3; 10 min uptake. The protocol:
as §1, §2

As usually defined, the IC50 is the point on the concentration scale where inhibition reaches its midpoint. Higher therefore signals a need for much substance. With `CCNC(=S)N/N=C/c1cc(C[N+](C)(C)C)ccc1O` [[H2L^Et]Cl], the IC50 against OCT1 turned out to be 169 ± 26.2 µM; at OCT2 it was 236 ± 97.1 µM; against OCT3 it was 63.1 ± 8.9 µM.

Turning to `C[N+](C)(C)Cc1ccc(O)c(/C=N/NC(N)=S)c1` [[H2L^H]Cl], the half-inhibitory concentration (IC50) is 740 ± 195 µM at OCT1, above 4000 µM on OCT2 and 105 ± 32.8 µM against OCT3. The molecule also returned a half-inhibitory concentration (IC50) at 10 min against OCT1 (HEK-293 cells stably expressing human OCT1, pH 7.3, probe [3H]-MPP+ (50 nM)) of 740 µM. The “interaction with OCT2” value at OCT2 was “no interaction”.

With `CNC(=S)N/N=C/c1cc(C[N+](C)(C)C)ccc1O` [[H2L^Me]Cl], the IC50 against OCT1 was 391 ± 40 µM; on OCT2, above 4000 µM; against OCT3, 103 ± 23.4 µM. Further, the “interaction with OCT2” value at OCT2 is “no interaction”.

As for `C[N+](C)(C)Cc1ccc(O)c(/C=N/NC(=S)Nc2ccccc2)c1` [[H2L^Ph]Cl], the values for the IC50 on OCT1, on OCT2 and at OCT3 were 119 ± 50 µM, 371 ± 123 µM and 27.8 ± 5 µM, respectively.
